Source: the supplement of paper PMC11208160

Experiment: recombinant barcode read abundance after kanamycin selection (control-corrected) (log10(CPM+1)); higher = more efficient recombination; sequences stand for … in AGTGCAGAGAAAATCGGCCAGTTTTCTCTGCCTGCAGTCCGCATGCCGT…AGATTTATGCAGCGGACTGCCTTTCTCCCAAAGTGATAAACCGGACAGTATCATGGACCGGTTTTCCCGGTAATCCGTATTTGCAAGGTTGGTTTCACT; site = the 11-nt target
In short: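 Pooled oligos, each joining a target to an IS621 bridge RNA target-binding loop, were cloned and co-electroporated with a donor plasmid into E. coli. Selective plates carried chloramphenicol/ampicillin/kanamycin and 0.1 mM IPTG, while chloramphenicol/ampicillin LB agar served as control, with two replicates of each. Recombination efficiency rests on averaged, control-corrected counts per million of barcodes at recombinant junctions, shown as log10(CPM+1).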
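Further: IS621 recombinase and bridge RNA in Escherichia coli cells.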

In order of falling “recombinant barcode read abundance (log10)” value:
1. ATACGGACTTGGGTTCTAACCTGTTGCAG (site ATACGGACTCT)  2.77
2. ATAGAGTCTTGGGTTCTAACCTGTTGCTT (site ATAGAGTCTAA)  2.52
3. ATAGGACCTTGGGTTCTAACCTGTTGCCG (site ATAGGACCTCG)  2.36
4. AGTGAAGCTTGGGTTCTAACCTGTTGCAC (site AGTGAAGCTGT)  2.33
5. AGTGGAGCTTGGGTTCTAACCTGTTGCCT (site AGTGGAGCTAG)  2.27
6. ATAAAGCCTTGGGTTCTAACCTGTTGCCT (site ATAAAGCCTAG)  2.05
7. AGTGGACCTTGGGTTCTAACCTGTTGCCC (site AGTGGACCTGG)  1.86
8. ATACTAACTTGGGTTCTAACCTGTTGCCT (site ATACTAACTAG)  1.7
9. ATATTGCCTTGGGTTCTAACCTGTTGCCT (site ATATTGCCTAG)  1.67
10. ATATGGACTTGGGTTCTAACCTGTTGCTA (site ATATGGACTTA)  1.62
11. AGTGGGACTTGGGTTCTAACCTGTTGCCA (site AGTGGGACTTG)  1.56
12. ATATGGGCTTGGGTTCTAACCTGTTGCCG (site ATATGGGCTCG)  1.52
13. ATAGGTTCTTGGGTTCTAACCTGTTGCCT (site ATAGGTTCTAG)  1.49
14. ATATGGACTTGGGTTCTAACCTGTTGCTA (site ATACGGACTTA)  1.34
15. AGTGAGCCTTGGGTTCTAACCTGTTGCCT (site AGTGAGCCTAG)  1.26
16. ATAAAACCTTGGGTTCTAACCTGTTGCCT (site ATAAAACCTAG)  1.23
17. AGTCTCTCTTGGGTTCTAACCTGTTGCTA (site AGTCTCTCTTA)  1.21
18. ATAGCTACTTGGGTTCTAACCTGTTGCCT (site ATAGCTACTAG)  1.2
19. ATCCAGCCTTGGGTTCTAACCTGTTGCCT (site ATCCAACCTAG)  1.16
20. ATACAATCTTGGGTTCTAACCTGTTGCCT (site ATACAATCTAG)  1.13
21. ATACGTTCTTGGGTTCTAACCTGTTGCAT (site ATACGTTCTAT)  1.12
22. AGTTGGGCTTGGGTTCTAACCTGTTGCTG (site AGTTGGGCTCA)  1.02
23. ATACCATCTTGGGTTCTAACCTGTTGCCT (site ATGCCATCTAG)  0.855
24. ATATTTCCTTGGGTTCTAACCTGTTGCCT (site ATATTTCCTAG)  0.785
25. ATATGGACTTGGGTTCTAACCTGTTGCTA (site ATAAGGACTTA)  0.65
26. ATAAAACCTTGGGTTCTAACCTGTTGCCT (site CTAAAACCTAG)  0.64
27. ATAGCAACTTGGGTTCTAACCTGTTGCCT (site ATAGCAACTAG)  0.64
28. ATAAATCCTTGGGTTCTAACCTGTTGCCT (site ATAAATCCTAG)  0.632
29. ATACTAACTTGGGTTCTAACCTGTTGCCT (site ACACTAACTAG)  0.477
30. ATAACTACTTGGGTTCTAACCTGTTGCCA (site ATAACTACTTG)  0.462
31. AGTTCGACTTGGGTTCTAACCTGTTGCCT (site AGTTCGACTAG)  0.429
32. AGTTGGCCTTGGGTTCTAACCTGTTGCAG (site AGTTGGCCTCT)  0.39
33. ATATGGGCTTGGGTTCTAACCTGTTGCCG (site ATATGAGCTCG)  0.369
34. ATACGTTCTTGGGTTCTAACCTGTTGCAT (site CAGGTCCCTCG)  0.354
35. ATAGAGTCTTGGGTTCTAACCTGTTGCTT (site AGAGAGTCTAA)  0.352
36. AGTGAGCCTTGGGTTCTAACCTGTTGCCT (site AGTAAGCCTAG)  0.344
37. ATACCATCTTGGGTTCTAACCTGTTGCCT (site ATTCCATCTAG)  0.34
38. AGTTCGCCTTGGGTTCTAACCTGTTGCTA (site AGTGCGCCTTA)  0.317
39. AGTTGGCCTTGGGTTCTAACCTGTTGCAG (site CTAACTACTAA)  0.313
40. ATAACTACTTGGGTTCTAACCTGTTGCCA (site ATGTCTACTTG)  0.299
41. AGTGAAGCTTGGGTTCTAACCTGTTGCAC (site CACTTCCCTTC)  0.298
42. ATAGCTACTTGGGTTCTAACCTGTTGCCT (site ATAGCCACTAG)  0.248
43. ATAAAACCTTGGGTTCTAACCTGTTGCCT (site TTAAAACCTAG)  0.244
44. AGTTCGACTTGGGTTCTAACCTGTTGCCT (site ATTTCGACTAG)  0.234
45. ATACAATCTTGGGTTCTAACCTGTTGCCT (site TTACAATCTAG)  0.202
46. ATACGGACTTGGGTTCTAACCTGTTGCAG (site ATATGTACTCT)  0.198
47. ATACCATCTTGGGTTCTAACCTGTTGCCT (site ATCCCATCTAG)  0.173
48. ATATTTCCTTGGGTTCTAACCTGTTGCCT (site AGATTTCCTAG)  0.163
49. ATATGGACTTGGGTTCTAACCTGTTGCTA (site ATAGGGACTTA)  0.159
50. AGTTGGGCTTGGGTTCTAACCTGTTGCTG (site AGCTGGGCTCC)  0.154
51. ATAGGACCTTGGGTTCTAACCTGTTGCCG (site ATAGGACCTTG)  0.143
52. ATAGCTACTTGGGTTCTAACCTGTTGCCT (site ATAGCAACTAG)  0.142
53. AGTCTCTCTTGGGTTCTAACCTGTTGCTA (site AGTCTCTCTCG)  0.128
54. ATACAATCTTGGGTTCTAACCTGTTGCCT (site CTACAATCTAG)  0.127
55. ATAAATCCTTGGGTTCTAACCTGTTGCCT (site CTAAATCCTAG)  0.126
56. ATAAAACCTTGGGTTCTAACCTGTTGCCT (site GTAAAACCTAG)  0.114
57. ATAGCAACTTGGGTTCTAACCTGTTGCCT (site ATAGCCACTAG)  0.11
58. ATATGGGCTTGGGTTCTAACCTGTTGCCG (site ATATGTGCTCG)  0.1
59. AGTTAGTCTTGGGTTCTAACCTGTTGCCA (site AGTCAGTCTTG)  0.0961
60. ATAGGTTCTTGGGTTCTAACCTGTTGCCT (site AGAGGTTCTAG)  0.0854
61. ATCCAGCCTTGGGTTCTAACCTGTTGCCT (site ATCCACCCTAG)  0.0824
62. ATAAATCCTTGGGTTCTAACCTGTTGCCT (site TTAAATCCTAG)  0.0804
63. ATAGGTTCTTGGGTTCTAACCTGTTGCCT (site ACAGGTTCTAG)  0.0769
64. ATATTGCCTTGGGTTCTAACCTGTTGCCT (site ATATTGTCTTG)  0.0732
65. ATACTAACTTGGGTTCTAACCTGTTGCCT (site AAACTAACTAG)  0.0718
66. ATAGCAACTTGGGTTCTAACCTGTTGCCT (site ATAGCTACTAG)  0.0705
67. AGTGGACCTTGGGTTCTAACCTGTTGCCC (site TCCCATACTAT)  0.0634
68. AGTGAGCCTTGGGTTCTAACCTGTTGCCT (site AGTTAGCCTAG)  0.0633
69. ATATGGGCTTGGGTTCTAACCTGTTGCCG (site ATATGCGCTCG)  0.0627
70. ATAAATCCTTGGGTTCTAACCTGTTGCCT (site GTAAATCCTAG)  0.0609
71. AGTTAGTCTTGGGTTCTAACCTGTTGCCA (site AGTTAGTCTTG)  0.0604
72. AGTGGAGCTTGGGTTCTAACCTGTTGCCT (site AGGGGATCTAG)  0.0601
73. AGTGGGACTTGGGTTCTAACCTGTTGCCA (site GGTGAGACTTG)  0.0594
74. AGTGAGCCTTGGGTTCTAACCTGTTGCCT (site AGTCAGCCTAG)  0.0584
75. ATAGCTACTTGGGTTCTAACCTGTTGCCT (site ATAGCGACTAG)  0.0534
76. ATACTAACTTGGGTTCTAACCTGTTGCCT (site AGACTAACTAG)  0.0472
77. ATAGGTTCTTGGGTTCTAACCTGTTGCCT (site AAAGGTTCTAG)  0.0456
78. ATACAATCTTGGGTTCTAACCTGTTGCCT (site GTACAATCTAG)  0.0425
79. ATACCATCTTGGGTTCTAACCTGTTGCCT (site ATACCATCTAG)  0.031
80. ATATTTCCTTGGGTTCTAACCTGTTGCCT (site ACATTTCCTAG)  0.0246
81. ATAGCAACTTGGGTTCTAACCTGTTGCCT (site ATAGCGACTAG)  0.0185
82. ATAAAGCCTTGGGTTCTAACCTGTTGCCT (site ATAAGGCCTAG)  0.0177
83. AGTTCGACTTGGGTTCTAACCTGTTGCCT (site ACTTCGACTAG)  0.0163
84. ATATTTCCTTGGGTTCTAACCTGTTGCCT (site AAATTTCCTAG)  0.0146
85. AGTTCGACTTGGGTTCTAACCTGTTGCCT (site AATTCGACTAG)  0.0143
86. AGTTCGCCTTGGGTTCTAACCTGTTGCTA (site AGTTCGCCTTA)  0.012
